# Tested on: NmGT22 protein
# Assay: Enzyme activity of purified His-tag NmGT22 protein on flavonoid substrates (HPLC)
# Format: biochemical, Nemophila menziesii
# Settings: NmGT22 protein solution, UDP-glucose, 2 mM substrate, same reaction conditions
# Experimental: E. coli strain BL2 introduced with pET SUMO-NmGT22 described in Example 5 was cultured using the Overnight Express Auto-induction System 1 (Novagen Inc.) in accordance with the manufacturer's recommended protocol. The transformed E. coli were cultured in 8 ml of prepared culture broth at 37° C. until the OD600 value reached 0.5 (about 4 hours). This E. coli culture broth was added to 200 ml of a culture broth as pre-culture broth followed by final culturing overnight at 25° C.
# After having been cultured overnight, the E. coli culture broth was centrifuged (1,000×g, 4° C., 10 minutes), the harvested bacterial cells were suspended in 20 ml of extract (composition: buffer solution (300 mM KCl, 50 mM KH2PO4, 5 mM imidazole) (pH 8.0), 10 μM amidinophenylmethanesulfonyl fluoride hydrochloride (APMSF)), and the E. coli were crushed by ultrasonic treatment followed by centrifuging (1,400×g, 4° C., 20 minutes) and recovering the supernatant. The supernatant was passed through a 0.45 μm filter and subjected to His-Tag purification using Profinia (Bio-Rad Corp.) in accordance with the manufacturer's recommended protocol. The resulting purified protein solution was centrifuged (7,500×g, 4° C., 15 minutes) using a centrifugal filter unit (Ultracel-10K, Amicon Ultra), and the concentrated protein solution was used as “NmGT-22 Protein Solution”. The Avanti HP-26XP centrifuge (rotor: JA-2, Beckman Coulter Inc.) was used for centrifugation.
# A reaction solution prepared by mixing 10 μl of protein solution, 2 it of 50 mM UDP-glucose, 10 μl of 1 M Tris-HCl (pH 7.5) and 1 μl of 2 mM apigenin 4′-glucoside (dissolved in 50% aqueous acetonitrile solution containing 0.1% TFA) on ice and bringing to reaction volume of 100 μl with water was held for 20 minutes at 30° C. Subsequently, 100 μl of stop buffer (90% aqueous acetonitrile solution containing 0.1% TFA) were added to stop the reaction followed by analyzing the reaction solution by high-performance liquid chromatography (Prominence, Shimadzu Corp.). Flavone was detected at 330 nm using the Shimadzu PDA SPD-M10AVP for the detector. The Shim-Pack ODS column (150 mm×4.6 mm, Shimadzu Corp.) was used for the column. A liquid A (0.1% aqueous TFA solution) and a liquid B (90% aqueous methanol solution containing 0.1% TFA) were used for elution. Elution was carried out for 10 minutes at a linear concentration gradient from an 8:2 mixture of the two solutions to a 3:7 mixture of the two solutions followed by eluting for 6 minutes using a 3:7 mixture of the two solutions. The flow rate was 0.6 ml/min.
row,Compound,product synthesized by enzyme reaction
1,O=c1cc(-c2ccc(O[C@@H]3O[C@H](CO)[C@@H](O)[C@H](O)[C@H]3O)c(O)c2)oc2cc(O)cc(O)c12 [luteolin 4′-glucoside],"Luteolin 4′,7-diglucoside was synthesized"

# Same assay, conditions: NmGT22 protein solution, UDP-glucose, 1 μl of 2 mM substrate in 100 μl, 20 minutes at 30° C.
row,Compound,reaction rate (percentage of transformed substrate)
1,O=c1cc(-c2ccc(O)c(O)c2)oc2cc(O[C@@H]3O[C@H](CO)[C@@H](O)[C@H](O)[C@H]3O)cc(O)c12 [luteolin 7-glucoside],16.10%
2,"O=c1cc(-c2ccc(O)cc2)oc2cc(O)cc(O)c12 [apigenin, 4′,5,7-trihydroxyflavone]",77.16%
3,"O=c1cc(-c2ccc(O)c(O)c2)oc2cc(O)cc(O)c12 [luteolin, 3′,4′,5,7-tetrahydroxyflavone]",99.07%
4,O=c1cc(-c2ccc(O[C@@H]3O[C@H](CO)[C@@H](O)[C@H](O)[C@H]3O)cc2)oc2cc(O)cc(O)c12 [apigenin 4′-glucoside],100%
5,O=c1cc(-c2ccc(O)cc2)oc2cc(O[C@@H]3O[C@H](CO)[C@@H](O)[C@H](O)[C@H]3O)cc(O)c12 [apigenin 7-glucoside],2.69%
